Experimental findings from US11230545B2, “Heterocyclic compound” (Takeda Pharmaceutical Company Limited, priority 2018, dated 2022) are described below.

One experiment addresses T1, recombinant human MALT1 (Homo sapiens, UniProt Q9UDY8).
T1 construct: to form a human MALT1 (340-789aa) dimer; His tag (from pET28a, N-terminal) (N); yeast GCN4 leucine zipper (251-281aa), fusion partner for dimerisation (N); translates to GSGSGS), between GCN4 zipper and MALT1 (N); His tag (C-terminal) (C); made in house; host or cells: E. coli BL21 (DE3)
Kind of experiment: Measurement of MALT1 enzyme inhibitory activity. Format: biochemical. The conditions noted are these: read-out: MALT1 enzyme inhibition rate (%) at 3 μM compound. On the procedure:
On the human MALT1 gene, PCR was carried out using GC-030-[…] (pENTR221/MALT1, GeneCopoeia) as a template with primers having BamH I restriction enzyme at the N-terminal and Not I restriction enzyme at the C-terminal to form a human MALT1 (340-789aa) dimer. […] Both of the obtained fragments were treated with the restriction enzymes, and inserted between Nde I and Not I of a pET28a (Novagen) vector to yield a recombinant human MALT1 protein expression vector pET28a/His-LZ-hMALT1v1 (340-789)-His. The recombinant human MALT1 protein was prepared by transforming the expression plasmid prepared as above with ECOS Competent E. coli BL21 (DE3) (Nippon Gene Co., Ltd.). Escherichia coli obtained by transformation was inoculated into 300 mL of LB medium (1% tryptone, 0.5% yeast extract, 0.5% sodium chloride, 0.01% ampicillin) and cultured at 30° C. for 16 hours. […] Furthermore, culturing was carried out for 16 hours to induce expression of human MALT1 protein. After completion of the culture, the culture solution was centrifuged at 5,000 rpm for 10 minutes. […] This crushed liquid was centrifuged (15,300×G, 30 min, TOMY MX-301), and the obtained supernatant was passed through and adsorbed to a Ni-NTA Superflow (QIAGEN) column previously equilibrated with 50 mM Tris-HCl pH 8.0, 300 mM NaCl, 5 mM DTT and 10% glycerol, followed by elution in a buffer containing 50 mM Tris-HCl pH 8.0, 300 mM NaCl, 5 mM DTT, 10% glycerol and 250 mM imidazole. […] The prepared protein was stored at -30° C., and the protein concentration was measured with a BCA Protein Assay Kit (PIERCE) using BSA as a standard. […] Subsequently, 2 μL of a purified recombinant human MALT1 enzyme solution was added, followed by incubation for 60 minutes at room temperature. To the mixture were added 2 μL of a substrate solution (75 μM Ac-LRSR-AFC (SM Biochemicals), 20 mM HEPES (Dojin Laboratories), 10 mM KCl (Wako Pure Chemical Industries, Ltd.), 1.5 mM MgCl2 (Sigma-Aldrich), 1 mM EDTA (pH 8.0) (Nippon Gene Co., Ltd.), 0.01% Triton X-100 (Sigma-Aldrich) and 1 mM DTT (Wako Pure Chemical Industries, Ltd.), followed by incubation for 60 minutes at room temperature. The fluorescence values of excitation 400 nm and emission 485 nm immediately after substrate addition and after enzymatic reaction were measured with a plate reader Envision (PerkinElmer), and the fluorescence values increased by enzymatic reaction were used for calculation of the inhibition rate (%).

Another experiment deals with OCI-Ly3 cells. In words: Measurement of growth inhibitory activity using OCI-Ly3 cells. The conditions noted are these: Homo sapiens, 144 h, 3 μm compound, 6 days, read-out: Cell growth inhibition rate (%) at 3 μm compound. Type of experiment: cell-based. On the procedure:
OCI-Ly3 cells were seeded in a cell culture medium IMDM (Fujifilm Wako Pure Chemical Corporation) containing 20% FCS (fetal calf serum, Thermo Fisher Scientific) and monothioglycerol (Fujifilm Wako Pure Chemical Corporation) so as to be at 1.25×10^3 cells/well on a 96-well plate. Cell Titer-Glo solution (Promega) was added to cells to which the test compound had not been added, followed by stirring at room temperature for 15 minutes. Subsequently, the luminescence value was measured with Envision (PerkinElmer) on the day of seeding. Cells to which the test compound dissolved in dimethyl sulfoxide (Fujifilm Wako Pure Chemical Corporation) had been added were allowed to stand in a CO2 incubator (37° C.) for 6 days. Subsequently, the luminescence value was measured in the same manner. The inhibition rate (%) of the test compound on OCI-Ly3 cell growth was calculated by the following formula. Cell growth inhibition rate (%)=(1−(Luminescent value on day 6 of test compound treatment−Luminescent value before test compound treatment)/(Luminescent value on day 6 without compound addition−Luminescent value before compound treatment))×100

Molecules are shown by their SMILES.

As usually defined, the inhibition is the change of the read-out against control, counted positive when it falls.

T1 sequence (Q9UDY8 340-789): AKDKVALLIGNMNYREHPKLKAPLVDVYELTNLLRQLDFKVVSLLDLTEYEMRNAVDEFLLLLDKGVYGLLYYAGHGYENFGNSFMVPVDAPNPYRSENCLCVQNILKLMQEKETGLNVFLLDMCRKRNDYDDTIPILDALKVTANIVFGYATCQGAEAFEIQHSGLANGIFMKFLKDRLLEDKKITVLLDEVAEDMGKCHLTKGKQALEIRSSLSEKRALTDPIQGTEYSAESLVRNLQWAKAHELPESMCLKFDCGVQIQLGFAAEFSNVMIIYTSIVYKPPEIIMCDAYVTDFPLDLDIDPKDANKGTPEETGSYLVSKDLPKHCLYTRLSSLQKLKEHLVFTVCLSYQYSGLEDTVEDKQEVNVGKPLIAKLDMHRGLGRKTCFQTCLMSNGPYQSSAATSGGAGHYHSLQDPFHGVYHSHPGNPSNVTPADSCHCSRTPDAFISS
T1 sequence (P03069 251-281 partner limits assumed): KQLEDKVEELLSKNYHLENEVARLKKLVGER

Regarding `CO[C@@H](C)c1c(NC(=O)Nc2cnc(OC(F)F)c(C#N)c2)cnn2cc(C)nc12` [Example 5, (S)—N-(5-Cyano-6-(difluoromethoxy)pyridin-3-yl)-N′-(8-(1-methoxyethyl)-2-methylimidazo[1,2-b]pyridazin-7-yl)urea], the inhibition at 3 µM was 99% on recombinant human MALT1 and 93% with OCI-Ly3 cells. In the same order, the values of `CO[C@@H](C)c1c(NC(=O)Nc2cnc(-n3nccn3)c(C(F)(F)F)c2)cnn2cc(C)nc12` [Example 6, (S)—N-(8-(1-Methoxyethyl)-2-methylimidazo[1,2-b]pyridazin-7-yl)-N′-(6-(2H-1,2,3-triazol-2-yl)-5-(trifluoromethyl)pyridin-3-yl)urea] are 108% and 99%. In the same order, the values of `COC(C)(C)c1c(NC(=O)Nc2cnc(-n3nccn3)c(Cl)c2)cnn2cc(C)nc12` [Example 7, N-(5-Chloro-6-(2H-1,2,3-triazol-2-yl)pyridin-3-yl)-N′-(8-(2-methoxypropan-2-yl)-2-methylimidazo[1,2-b]pyridazin-7-yl)urea] are 98% and 95%. Take `CC(C)c1c(NC(=O)Nc2cnc(OC(F)F)c(Cl)c2)cnn2cc(Cl)nc12` [Example 8, N-(5-Chloro-6-(difluoromethoxy)pyridin-3-yl)-N′-(2-chloro-8-(propan-2-yl)imidazo[1,2-b]pyridazin-7-yl)urea]: the inhibition at 3 µM at recombinant human MALT1 worked out at 94%. In the case of `Cc1cn2ncc(NC(=O)Nc3cnc(-n4nccn4)c(Cl)c3)c(C(C)C)c2n1` [Example 9, N-(5-Chloro-6-(2H-1,2,3-triazol-2-yl)pyridin-3-yl)-N′-(2-methyl-8-(propan-2-yl)imidazo[1,2-b]pyridazin-7-yl)urea], the inhibition at 3 µM on recombinant human MALT1 and with OCI-Ly3 cells was 99% in each case. `CO[C@@H](C)c1c(NC(=O)Nc2cc(C(F)(F)F)c(-n3nccn3)nc2C)cnn2cc(C)nc12` [Example 22, (S)-N-(8-(1-Methoxyethyl)-2-methylimidazo[1,2-b]pyridazin-7-yl)-N′-(2-methyl-6-(2H-1,2,3-triazol-2-yl)-5-(trifluoromethyl)pyridin-3-yl)urea]: the inhibition at 3 µM worked out at 104% at recombinant human MALT1 and 102% with OCI-Ly3 cells.

Regarding `CO[C@@H](C)c1c(NC(=O)Nc2cnc(-n3nccn3)c(C(F)F)c2)cnn2cc(C)nc12` [Example 31, (S)-N-(5-(Difluoromethyl)-6-(2H-1,2,3-triazol-2-yl)pyridin-3-yl)-N′-(8-(1-methoxyethyl)-2-methylimidazo[1,2-b]pyridazin-7-yl)urea], the inhibition at 3 µM at recombinant human MALT1 was 103%; in the experiment on OCI-Ly3 cells, 96%.

In the case of `CO[C@@H](C)c1c(NC(=O)Nc2cnc(OC(F)F)c(Br)c2)cnn2cc(C)nc12` [Example 35, (S)-N-(5-Bromo-6-(difluoromethoxy)pyridin-3-yl)-N′-(8-(1-methoxyethyl)-2-methylimidazo[1,2-b]pyridazin-7-yl)urea], the inhibition at 3 µM is 105% on recombinant human MALT1 and 95% in the experiment with OCI-Ly3 cells. With `COCc1cnn(-c2ncc(NC(=O)Nc3cnn4cc(C)nc4c3[C@H](C)OC)cc2Cl)n1` [Example 36, (S)-N-[5-Chloro-6-(4-(methoxymethyl)-2H-1,2,3-triazol-2-yl)pyridin-3-yl)-N′-(8-(1-methoxyethyl)-2-methylimidazo[1,2-b]pyridazin-7-yl)urea], the inhibition at 3 µM on recombinant human MALT1 was determined as 101%; in the experiment with OCI-Ly3 cells, 96%.

For the molecule `COC(C)c1c(NC(=O)Nc2cnc(OC(F)F)c(Cl)c2)cnc2ccc(Cl)nc12` (stereo not drawn) [Example 59, N-(5-Chloro-6-(difluoromethoxy)pyridin-3-yl)-N′-(6-chloro-4-(1-methoxyethyl)-1,5-naphthyridin-3-yl)urea], the inhibition at 3 µM on recombinant human MALT1 was found to be 95%; with OCI-Ly3 cells, 98%. Turning to `CO[C@@H](C)c1c(NC(=O)Nc2cc(C(F)(F)F)c(-n3nccn3)nc2C)cnc2ccc(Cl)nc12` [Example 66, (S)-N-(6-Chloro-4-(1-methoxyethyl)-1,5-naphthyridin-3-yl)-N′-(2-methyl-6-(2H-1,2,3-triazol-2-yl)-5-(trifluoromethyl)pyridin-3-yl)urea], the results for the inhibition at 3 µM on recombinant human MALT1 and in the experiment with OCI-Ly3 cells were 99% and 100%, respectively. Taken in the same sequence, the figures for `COC(C)c1c(NC(=O)Nc2cnc(-n3nccn3)c(Cl)c2)cnn2cc(Cl)nc12` (stereo not drawn) [Example 133, N-(2-Chloro-8-(1-methoxyethyl)imidazo[1,2-b]pyridazin-7-yl)-N′-(5-chloro-6-(2H-1,2,3-triazol-2-yl)pyridin-3-yl)urea] were 99% and 98%. On to `CC(c1c(NC(=O)Nc2cnc(OC(F)F)c(Cl)c2)cnn2cc(Cl)nc12)C(F)(F)F` (stereo not drawn) [Example 173, N-(5-Chloro-6-(difluoromethoxy)pyridin-3-yl)-N′-(2-chloro-8-(1,1,1-trifluoropropan-2-yl)imidazo[1,2-b]pyridazin-7-yl)urea], for which the figures for the inhibition at 3 µM at recombinant human MALT1 and with OCI-Ly3 cells were 99% and 85%, respectively. In the case of `COc1nccc2ncc(NC(=O)Nc3cnc(-n4nccn4)c(C(F)(F)F)c3)c(C(C)OC)c12` (stereo not drawn) [Example 255, N-(5-Methoxy-4-(1-methoxyethyl)-1,6-naphthyridin-3-yl)-N'-(6-(2H-1,2,3-triazol-2-yl)-5-(trifluoromethyl)pyridin-3-yl)urea], the values for the inhibition at 3 µM on recombinant human MALT1 and in the experiment on OCI-Ly3 cells were 97% and 99%, respectively. Taken in the same sequence, the figures for `COC(C)c1c(NC(=O)Nc2cnc(-n3nccn3)c(C(F)(F)F)c2)cnc2ccnc(C)c12` (stereo not drawn) [Example 261, N-(4-(1-Methoxyethyl)-5-methyl-1,6-naphthyridin-3-yl)-N'-(6-(2H-1,2,3-triazol-2-yl)-5-(trifluoromethyl)pyridin-3-yl)urea] were 98% and 88%. In the same order, the values of `COC(C)c1c(NC(=O)Nc2cnc(-n3nccn3)c(C(F)(F)F)c2)cnc2ccc(=O)n(C)c12` (stereo not drawn) [Example 269, N-(4-(1-Methoxyethyl)-5-methyl-6-oxo-5,6-dihydro-1,5-naphthyridin-3-yl)-N'-(6-(2H-1,2,3-triazol-2-yl)-5-(trifluoromethyl)pyridin-3-yl)urea] are 99% and 95%. Take `COc1ncc(NC(=O)Nc2cnc3ccn(C)c(=O)c3c2C(C)OC)cc1Cl` (stereo not drawn) [Example 270, N-(5-Chloro-6-methoxypyridin-3-yl)-N'-(4-(1-methoxyethyl)-6-methyl-5-oxo-5,6-dihydro-1,6-naphthyridin-3-yl)urea]: the inhibition at 3 µM at recombinant human MALT1 was determined as 94%; with OCI-Ly3 cells it was 40%.
